Patent publication US6020342A, “Fused imidazo[1,2-A]pyridines” (Shinnippon Pharmaceutical, Inc., priority 1995, dated 2000)

What was measured:
[1] = target: T1, H^+ /K^+ -ATPase (Sus scrofa, UniProt P19156); experiment: Inhibitory Action on H^+ /K^+ -ATPase Activity; type: biochemical; conditions: microsome fraction from porcine gastric mucosa, pH7.4, 37° C., 30 min preincubation, 15 min reaction
T1 construct: a microsome fraction prepared from porcine gastric mucosa was used as a standard enzyme; from tissue; host or cells: porcine gastric mucosa, microsome fraction
T1 sequence (P19156 2-1034 limits assumed): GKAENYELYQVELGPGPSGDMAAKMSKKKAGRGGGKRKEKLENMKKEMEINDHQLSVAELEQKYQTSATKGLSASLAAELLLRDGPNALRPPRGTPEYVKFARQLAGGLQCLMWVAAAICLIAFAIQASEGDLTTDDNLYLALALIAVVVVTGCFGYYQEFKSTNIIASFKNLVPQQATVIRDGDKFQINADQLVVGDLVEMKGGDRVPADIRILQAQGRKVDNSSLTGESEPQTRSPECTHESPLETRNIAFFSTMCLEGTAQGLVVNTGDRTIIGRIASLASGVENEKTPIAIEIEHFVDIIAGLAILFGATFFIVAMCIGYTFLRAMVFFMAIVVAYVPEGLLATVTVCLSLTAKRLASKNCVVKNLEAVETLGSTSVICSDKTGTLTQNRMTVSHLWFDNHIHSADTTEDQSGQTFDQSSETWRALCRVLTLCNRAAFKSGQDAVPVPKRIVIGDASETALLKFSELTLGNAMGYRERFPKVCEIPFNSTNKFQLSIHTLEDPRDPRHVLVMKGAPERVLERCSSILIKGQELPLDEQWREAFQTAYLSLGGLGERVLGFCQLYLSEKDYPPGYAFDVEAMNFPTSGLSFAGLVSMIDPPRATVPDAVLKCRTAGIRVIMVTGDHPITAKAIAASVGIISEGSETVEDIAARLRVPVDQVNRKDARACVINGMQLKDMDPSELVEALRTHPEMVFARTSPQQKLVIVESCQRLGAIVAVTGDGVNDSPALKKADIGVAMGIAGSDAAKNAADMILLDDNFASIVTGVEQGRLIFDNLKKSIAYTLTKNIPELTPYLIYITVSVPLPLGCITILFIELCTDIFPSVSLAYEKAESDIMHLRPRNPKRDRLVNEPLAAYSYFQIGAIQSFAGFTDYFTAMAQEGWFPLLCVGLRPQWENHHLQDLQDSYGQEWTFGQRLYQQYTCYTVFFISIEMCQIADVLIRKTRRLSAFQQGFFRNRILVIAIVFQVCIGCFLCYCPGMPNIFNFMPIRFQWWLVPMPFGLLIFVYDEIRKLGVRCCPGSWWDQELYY
T1 sequence (P18434 whole entry partner): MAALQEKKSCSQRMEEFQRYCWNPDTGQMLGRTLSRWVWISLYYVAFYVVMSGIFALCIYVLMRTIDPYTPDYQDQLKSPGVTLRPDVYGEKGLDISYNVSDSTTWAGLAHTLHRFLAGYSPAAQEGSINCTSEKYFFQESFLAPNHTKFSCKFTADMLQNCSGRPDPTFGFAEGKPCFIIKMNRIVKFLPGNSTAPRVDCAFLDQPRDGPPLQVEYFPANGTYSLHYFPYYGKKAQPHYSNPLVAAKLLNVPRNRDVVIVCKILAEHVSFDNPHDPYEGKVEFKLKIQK
Procedure: Inhibitory Action on H^+ /K^+ -ATPase Activity
According to the method of Hongo et al. [The Japanese Journal of Pharmacology, 52, p295, (1990)], a microsome fraction prepared from porcine gastric mucosa was used as a standard enzyme. The standard enzyme (10-20lig protein) and the test compound (0.1-100 μM) dissolved in dimethylsulfoxide was incubated at 37° C. for 30 minutes in the 50 mM Tris-acetate buffer (pH7.4, containing 2 mM magnesium chloride, 5 mM potassium chloride). The enzyme reaction was started by adding adenosinetriphosphate (ATP). Tris at the final concentration of 2 mM, and the reaction was kept at 37° C. for 15 minutes. The reaction was stopped by adding chilled 10% trichloroacetic acid. Inorganic phosphate released during the reaction was calorimetrically determined according to the method of Fiske-Subbarow [The Journal of Biological Chemistry, 66, p375, (1925)]. H^+ /K^+ -ATPase activity was determined by the difference of the enzyme activities under the conditions with or without potassium chloride. The inhibitory activities of test compounds were determined as the 50% inhibitory concentration (IC50 value) from reaction-concentration curve, and the results are shown in Table 3.

[2] = system: gastric acid secretion; experiment: Inhibition of Gastric Acid Secretion Observed Under Acute Fistula Method; type: in vivo, male Wistar rats; conditions: Rattus norvegicus; 30 mg/kg intraduodenally, rats, histamine 10 mg/kg s.c., cumulative 2 h
Procedure: Inhibition of Gastric Acid Secretion Observed Under Acute Fistula Method
Male Wistar rats (6-8 weeks) fasted for 24 hours (water ad libitum) were used. The rats were anesthetized by intraperitoneal administration of 1.25 g/kg of urethane. The abdomen was incised, and acute gastric fistula was connected to the stomach. Two ml of saline was injected into the stomach, and recovered every 20 minutes. The gastric acid secretion was determined by titrating of gastric juice by 150 mM sodium hydroxide up to pH7.0 using an autotitrator. Test compounds (30 mg/kg) suspended in a 0.5% aqueous sodium carboxymethylcellulose (CMC-Na) solution were administered intraduodenally. After 1 hour, gastric acid secretion was stimulated by subcutaneous administration of histamine dihydrochloride dissolved in saline (10 mg/kg). Inhibition (%) of gastric acid secretion was determined by calculating cumulative amount of the acid secretion during two hours after histamine stimulation and then comparing the cumulative amount with that in the control group. In the control group, only 0.5% aqueous CMC-Na solution was administered intraduodenally.

[3] = parameters: species or system male ICR mice; conditions: mouse, in vivo, po, 10080 min
Procedure: Male ICR mice (6 weeks, 3 mice per group) fasted for 16 hours were used ad libitum). A test compound suspended in 5% aqueous gum arabic solution was orally administered. After administration, mortality of the animals observed during 7 days and approximate lethal dose was determined.

[4] = system: gastric acid secretion; experiment: Inhibition of Gastric Acid Secretion Observed Under Stomach Perfusion Method; type: in vivo, male Sprague Dawrey rats; conditions: Rattus norvegicus, ip, 1 h; rats, histamine i.v. 8 mg/kg/hr, inhibition one hour after administration (1-10 mg/kg, "intrapenetorially"); read-out: ID50 (dose showing 50% inhibition of acid secretion)
Procedure: Inhibition of Gastric Acid Secretion Observed Under Stomach Perfusion Method
Male Sprague Dawrey rats (6-7weeks) fasted for 24 hours were used (water ad libitum). The rats were anesthetized by intraperitoneal administration of 1.25 g/kg of urethane. The abdomen was incised, and gastral cavity was perfused with saline during experiment. The perfusate was titrated by 10 mM sodium hydroxide up to pH5.5 using an autotitrator in accordance with Stat-method. Gastric acid secretion was stimulated by intravenous administration of histamine dihydrochloride (8 mg/kg/hr). Two hours after histamine stimulation, a test compound 1-10 mg/kg) was administered intrapenetorially. The test compound was mixed with small amount of polysorbate-80, and the mixture was suspended in saline. The test compound was evaluated using ID50 (dose showing 50% inhibition of acid secretion) which was calculated based on inhibition of the acid secretion observed one hour after administration of the compound.

[5] = system: ethanol-induced gastric lesion; experiment: Inhibition of Ethanol-induced Gastric Lesion (Protection of gastric mucosa); type: in vivo, male Wister rats; conditions: Rattus norvegicus, po, 1 h; 30 mg/kg orally, rats, ethanol 0.5 ml/100 g
Procedure: Inhibition of Ethanol-induced Gastric Lesion (Protection of gastric mucosa)
Male Wister rats (6-7weeks, 5 rats per group) fasted for 24 hours were used (water ad libitum). Test compound (30 mg/kg) suspended in 0.5% aqueous CMC-Na solution was orally administered. In the control group, only 0.5% aqueous CMC-Na solution was administered. Thirty minutes after administration, 0.5 ml/100 g body weight of ethanol was orally administered to cause gastric lesion. After one hour, the rat was killed by excessive amount of ether, and the stomach was removed and fixed with 2% formalin. After fixation, the stomach was dissected along the large curvature. The size of each of mucosal lesions was measured under dissecting microscope, and the total size of the lesions per rat was determined and used as ulcer index (mm). Inhibition of gastric lesion was determined by comparing the ulcer index in the control group and test group.

Structure (SMILES)	IC50 [1] [µM]	inhibition in vivo at 30 mg/kg [2] [%]	Approximate lethal dose [3]	ED50 [4] [mg/kg]	inhibition in vivo at 30 mg/kg [5] [%]
Cc1ccccc1-c1nc2c3cc(Cl)ccc3ccn2c1N [Compound 6, 3-Amino-9-chloro-2-(2-methylphenyl)imidazo[2,1-a]isoquinoline]	12	79.6	> 2,000 mg/kg	5	–
Cc1ccccc1-c1nc2c3c(Cl)cccc3ccn2c1N [Compound 7, 3-Amino-10-chloro-2-(2-methylphenyl)imidazo[2,1-a]isoquinoline]	8	74.9	–	–	–
Cc1ccccc1-c1nc2c3ccccc3cc(C)n2c1N [Compound 9, 3-Amino-5-methyl-2-(2-methylphenyl)imidazo[2,1-a]isoquinoline]	34	90.7	> 2,000 mg/kg	3.1	–
COc1ccc2ccn3c(N)c(-c4ccccc4C)nc3c2c1 [Compound 26, 3-Amino-9-methoxy-2-(2-methylphenyl)imidazo[2,1-a]isoquinoline]	32	90.8	> 2,000 mg/kg	2.8	–
CSc1cccc2c1ccn1c(N)c(-c3ccccc3C)nc21 [Compound 46, 3-Amino-2-(2-methylphenyl)-7-(methylthio)imidazo[2,1-a]isoquinoline]	8.4	73.8	–	–	–
COc1ccc2ccn3c(N)c(-c4sccc4C)nc3c2c1 [Compound 75, 3-Amino-9-methoxy-2-(3-methyl-2-thienyl)imidazo[2,1-a]isoquinoline]	6.4	73.3	–	–	–
Cc1cc(-c2nc3c4ccccc4ccn3c2N)c(C)o1 [Compound 91, 3-Amino-2-(2,5-dimethyl-3-furyl)imidazo[2,1-a]isoquinoline]	5.6	–	> 2,000 mg/kg	–	–
CCNc1c(-c2sccc2C)nc2c3ccccc3c(OC)cn12 [Compound 176, 3-Ethylamino-6-methoxy-2-(3-methyl-2-thienyl)imidazo[2,1-a]isoquinoline]	9	49.9	> 2,000 mg/kg	–	–
CCNc1c(-c2csc(Cl)c2C)nc2c3ccccc3ccn12 [Compound 179, 2-(2-Chloro-3-methyl-4-thienyl)-3-ethylaminoimidazo[2,1-a]isoquinoline]	4.8	52.8	> 2,000 mg/kg	–	–
CCCNc1c(-c2ccccc2C)nc2c3ccccc3c(OC)cn12 [Compound 182, 6-Methoxy-2-(2-methylphenyl)-3-propylaminoimidazo[2,1-a]isoquinoline]	11	58.4	> 2,000 mg/kg	–	–
Cc1ccccc1-c1nc2c3ccccc3ccn2c1NCCC(C)C [Compound 188, 3-Isopentylamino-2-(2-methylphenyl)imidazo[2,1-a]isoquinoline]	10.5	79.1	> 2,000 mg/kg	–	–
CCN(CCOC)c1c(-c2ccccc2C)nc2c3ccccc3ccn12 [Compound 205, 3-[N-Ethyl-N-(2-methoxyethyl)amino]-2-(2-methylphenyl)imidazo[2,1-a]isoquinoline]	–	86	> 2,000 mg/kg	–	98.6
CCCN(CC)c1c(-c2ccccc2C)nc2c3ccccc3ccn12 [Compound 207, 3-(N-Ethyl-N-propylamino)-2-(2-methylphenyl)imidazo[2,1-a]isoquinoline]	9.3	67.4	–	–	–
CCCN(CC)c1c(-c2sccc2C)nc2c3ccccc3ccn12 [Compound 212, 3-(N-Ethyl-N-propylamino)-2-(3-methyl-2-thienyl)imidazo[2,1-a]isoquinoline]	1.9	–	> 2,000 mg/kg	–	–
CCN(CCCSC)c1c(-c2ccccc2C)nc2c3ccccc3ccn12 [Compound 214, 3-[N-Ethyl-N-(3-methylthiopropyl)amino]-^2-(2-methylphenyl)imidazo[2,1-a]isoquinoline]	7	56	–	–	–
CCc1ccccc1-c1nc2c3ccccc3ccn2c1N(CC)CCC(C)C [Compound 216, 3-(N-Ethyl-N-isopentylamino)-2-(2-ethylphenyl)imidazo[2,1-a]isoquinoline]	2.5	–	> 2,000 mg/kg	–	81.7
Cc1ccccc1-c1nc2c3ccccc3ccn2c1N1CCCCC1 [Compound 217, 2-(2-Methylphenyl)-3-piperidinoimidazo[2,1-a]isoquinoline]	4.7	–	> 2,000 mg/kg	–	–
C=CCN(CC=C)c1c(-c2ccccc2C)nc2c3ccccc3ccn12 [Compound 223, 3-diallylamino-2-(2-methylphenyl)imidazo[2,1-a]isoquinoline]	4.5	60.1	–	–	–
Cc1ccccc1-c1nc2c3ccsc3ccn2c1N [Compound 234, 3-Amino-2-(2-methylphenyl)imidazo[1,2-a]thieno[3,2-c]pyridine]	7.6	–	–	1.8	–
Cc1ccccc1-c1nc2c3ccsc3cc(C)n2c1N [Compound 236, 3-Amino-5-methyl-2-(2-methylphenyl)imidazo[1,2-a]thieno[3,2-c]pyridine]	4.7	–	> 2,000 mg/kg	1.4	91.5
Cc1sccc1-c1nc2c3ccsc3ccn2c1N [Compound 254, 3-Amino-2-(2-methyl-3-thienyl)imidazo[1,2-a]thieno[3,2-c]pyridine]	4.5	–	–	1.1	92.4
Cc1sccc1-c1nc2c3ccsc3cc(C)n2c1N [Compound 255, 3-Amino-5-methyl-2-(2-methyl-3-thienyl)imidazo[1,2-a]thieno[3,2-c]pyridine]	6.6	–	–	1	–
Cc1cc(-c2nc3c4ccsc4ccn3c2N)c(C)o1 [Compound 271, 3-Amino-2-(2,5-dimethyl-3-furyl)imidazo[1,2-a]thieno[3,2-c]pyridine]	5.2	–	–	2.4	99.5
Cc1ccccc1-c1nc2c3ccn(C)c3ccn2c1N [Compound 291, 3-Amino-7-methyl-2-(2-methylphenyl)imidazo[1,2-a]pyrrolo[3,2-c]pyridine]	4.8	–	–	6.4	–
Cc1ccccc1-c1nc2c3sccc3ccn2c1N [Compound 310, 3-Amino-2-(2-methylphenyl)imidazo[1,2-a]thieno[2,3-c]pyridine]	26	–	> 2,000 mg/kg	3	–
CCNc1c(-c2ccccc2C)nc2c3ccsc3ccn12 [Compound 340, 3-Ethylamino-2-(2-methylphenyl)imidazo[1,2-a]thieno[3,2-c]pyridine]	33	–	–	4.9	–
